Assays:
[1] = tested on: EHBMP-2 (BMP-2 mutated at the N-terminal heparin-binding domain) in C2C12 cells; test: ALP activity in C2C12 cells with mutant EHBMP-2; assay type: cell-based, mouse; details: mutant BMP-2 with negligible heparin binding
Description: (§1) C2C12 Cell Culture: C2C12 mouse myoblasts (ATCC) were maintained in Dulbecco's Modified Eagle's Medium with high glucose and L-glutamine (DMEM, ATCC), supplemented with 100 U/mL of penicillin and 100 μg/mL streptomycin (P/S, Life Technologies) and 10% heat inactivated FBS (Life Technologies), and passaged at 80-90% confluence. Media was changed every 2 days. Passages 3 to 8 were used for experiments. Cells were grown at 37° C., 5% CO2 in a humidified atmosphere. Cells were detached following a 3 minute incubation at 37° C. with 0.05% Trypsin-EDTA (Life Technologies), then resuspended in DMEM (10% FBS). Unless stated otherwise, cells were seeded at 75,000 cells/mL (400 μL/well in a 48-well plate), and allowed to attach for a minimum of 3 hours prior to experiments.
C2C12 Osteoblast Differentiation: PA samples were thermally annealed as described for Cryo-TEM. PA solutions were spun down, pipetted for homogeneous mixing, then diluted to 1 mM with DMEM (no FBS). […] Cells were cultured for 3 days without changing the media, and osteoblast differentiation was assessed.
Alkaline Phosphatase Activity: Alkaline phosphatase (ALP) activity was measured as a marker of osteoblast differentiation (ref. 38; incorporated by reference in its entirety). […] The ALP activity was assessed by reading the OD at 630 nm with Cytation3 microplate reader (BioTek). […]

[2] = tested on: ALP and Osteocalcin (OCN) gene expression in C2C12 cells; test: Quantitative RT-PCR of ALP and Osteocalcin in C2C12 cells; assay type: cell-based, mouse; details: relative to heparin or PA nanofibers displaying uncharged GlcNAc; day 3
Description: as §1
C2C12 Osteoblast Differentiation: PA samples were thermally annealed as described for Cryo-TEM. […] Cells were cultured for 3 days without changing the media, and osteoblast differentiation was assessed.
Quantitative RT-PCR: The gene expression levels were determined by real-time, reverse-transcription-PCR using an iQ5 Real-Time PCR Detection System (Bio-Rad). […] To confirm the specificity of the amplified products, melting curves were performed by cooling samples at 55° C. for 30 s and then increasing the temperature to 94° C. at 0.5° C./sec with continuous fluorescence measurement. […]

For “3,4,6S-GlcNAc PA (VVAAEEK) [PA 1, glycosylated peptide amphiphile: Alkyne PA click-conjugated with trisulfated monosaccharide 1]”, the “ALP expression using EHBMP-2” value [1] was “minimally affected”, the “ALP mRNA expression” value [2] was “higher expressions” and the “osteocalcin mRNA expression” value [2] was “higher expressions”.

— patent US11497788B2, “Supramolecular glycosaminoglycans” (Northwestern University, priority 2015, dated 2022)
